Assay results reported in US10681909B2, “Herbicidal triazoles” (FMC Corporation, priority 2014, dated 2020).

What was measured:
[1] = system: kochia; test: Test C postemergence; format: in vivo, Kochia scoparia
Method in brief: (§1)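 Test chemicals in a non-phytotoxic solvent mixture with surfactant were applied to pots of plants at 2 to 18 cm (1- to 4-leaf stage) for postemergence treatment, grown in a peat-based medium with vermiculite, starter nutrients and dolomitic limestone. Preemergence treatment was to seeds freshly planted in loam soil mixed with sand.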

[2] = system: galium; test: Test C postemergence; format: in vivo, Galium aparine
Method in brief: as §1

[3] = system: velvetleaf; test: Test C postemergence; format: in vivo, Abutilon theophrasti
Method in brief: as §1

[4] = system: morningglory; test: Test C postemergence; format: in vivo, Ipomoea coccinea
Method in brief: as §1

[5] = system: foxtail, giant; test: Test A preemergence; format: in vivo, Setaria faberii; conditions: 0 to 100 scale (0 no effect, 100 complete control)
Method in brief: (§2)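 Loam/sand soil mix; compound in non-phytotoxic solvent + surfactant. Pre: directed soil spray right after planting seed. Post: potted plants 2–10 cm, 1–2 leaf stage, sprayed with same formulation.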

[6] = system: wheat; test: Test A postemergence; format: in vivo, Triticum aestivum; conditions: 0 to 100 scale (0 no effect, 100 complete control), approx. 10 d
Method in brief: as §2

[7] = system: barnyardgrass; test: Test A preemergence; format: in vivo, Echinochloa crus-galli; conditions: 0 to 100 scale (0 no effect, 100 complete control)
Method in brief: as §2

[8] = system: ryegrass, Italian; test: Test C postemergence; format: in vivo, Lolium multiflorum
Method in brief: as §1

[9] = system: oilseed rape; test: Test C postemergence; format: in vivo, Brassica napus
Method in brief: as §1

[10] = system: foxtail, giant; test: Test A postemergence; format: in vivo, Setaria faberii; conditions: 0 to 100 scale (0 no effect, 100 complete control), approx. 10 d
Method in brief: as §2

[11] = system: sedge, umbrella; test: Test B flooded paddy test; format: in vivo, Cyperus difformis; conditions: 250 g ai/ha, applied to paddy water at 2-leaf stage, visual rating after 13 to 15 d, scale 0 (no effect) to 100 (complete control)
Method in brief: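 Pots were flooded to 3 cm above the soil at treatment, and compounds were applied directly into the paddy water. That depth was held throughout. After 13 to 15 d in a greenhouse, plants were rated visually against untreated controls.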

[12] = system: corn; test: Test C postemergence; format: in vivo, Zea mays
Method in brief: as §1

[13] = system: nutsedge, yellow; test: Test C postemergence; format: in vivo, Cyperus esculentus
Method in brief: as §1

[14] = system: pigweed; test: Test A postemergence; format: in vivo, Amaranthus retroflexus; conditions: 0 to 100 scale (0 no effect, 100 complete control), approx. 10 d
Method in brief: as §2

[15] = system: johnsongrass; test: Test C postemergence; format: in vivo, Sorghum halepense
Method in brief: as §1

[16] = system: barnyardgrass; test: Test A postemergence; format: in vivo, Echinochloa crus-galli; conditions: 0 to 100 scale (0 no effect, 100 complete control), approx. 10 d
Method in brief: as §2

[17] = system: crabgrass, large; test: Test C postemergence; format: in vivo, Digitaria sanguinalis
Method in brief: as §1

[18] = system: barnyardgrass; test: Test C postemergence; format: in vivo, Echinochloa crus-galli
Method in brief: as §1

[19] = system: blackgrass; test: Test C postemergence; format: in vivo, Alopecurus myosuroides
Method in brief: as §1

[20] = system: waterhemp; test: Test C postemergence; format: in vivo, Amaranthus rudis
Method in brief: as §1

## CCCOc1nc(-c2ccccc2)nn1Cc1ccnc(C(F)(F)F)c1 [Compound 33]
[1]; 31 g ai/ha
  Plant response rating (scale of 0 to 100 where 0 is no effect and 100 is complete control): 90
[1]; 62 g ai/ha
  Plant response rating (scale of 0 to 100 where 0 is no effect and 100 is complete control): 90
[1]; 125 g ai/ha
  Plant response rating (scale of 0 to 100 where 0 is no effect and 100 is complete control): 90
[1]; 250 g ai/ha
  Plant response rating (scale of 0 to 100 where 0 is no effect and 100 is complete control): 90
[2]; 31 g ai/ha
  Plant response rating (scale of 0 to 100 where 0 is no effect and 100 is complete control): 55
[2]; 62 g ai/ha
  Plant response rating (scale of 0 to 100 where 0 is no effect and 100 is complete control): 60
[2]; 125 g ai/ha
  Plant response rating (scale of 0 to 100 where 0 is no effect and 100 is complete control): 75
[2]; 250 g ai/ha
  Plant response rating (scale of 0 to 100 where 0 is no effect and 100 is complete control): 80
[3]; 31 g ai/ha
  Plant response rating (scale of 0 to 100 where 0 is no effect and 100 is complete control): 15
[3]; 62 g ai/ha
  Plant response rating (scale of 0 to 100 where 0 is no effect and 100 is complete control): 15
[3]; 125 g ai/ha
  Plant response rating (scale of 0 to 100 where 0 is no effect and 100 is complete control): 10
[3]; 250 g ai/ha
  Plant response rating (scale of 0 to 100 where 0 is no effect and 100 is complete control): 40
[4]; 31 g ai/ha
  Plant response rating (scale of 0 to 100 where 0 is no effect and 100 is complete control): 55
[4]; 62 g ai/ha
  Plant response rating (scale of 0 to 100 where 0 is no effect and 100 is complete control): 80
[4]; 125 g ai/ha
  Plant response rating (scale of 0 to 100 where 0 is no effect and 100 is complete control): 85
[4]; 250 g ai/ha
  Plant response rating (scale of 0 to 100 where 0 is no effect and 100 is complete control): 75
[5]; 125 g ai/ha
  Plant response rating, Foxtail, Giant: 90
[5]; 500 g ai/ha, approx. 10 d
  Plant response rating, Foxtail, Giant: 100
[6]; 125 g ai/ha
  Plant response rating, Wheat: 0
[6]; 500 g ai/ha
  Plant response rating, Wheat: 30
[7]; 125 g ai/ha
  Plant response rating, Barnyardgrass: 50
[7]; 500 g ai/ha, approx. 10 d
  Plant response rating, Barnyardgrass: 80
[8]; 31 g ai/ha
  Plant response rating (scale of 0 to 100 where 0 is no effect and 100 is complete control): 0
[8]; 62 g ai/ha
  Plant response rating (scale of 0 to 100 where 0 is no effect and 100 is complete control): 5
[8]; 125 g ai/ha
  Plant response rating (scale of 0 to 100 where 0 is no effect and 100 is complete control): 5
[8]; 250 g ai/ha
  Plant response rating (scale of 0 to 100 where 0 is no effect and 100 is complete control): 15
[9]; Oilsee Rape, 250 g ai/ha
  Plant response rating (scale of 0 to 100 where 0 is no effect and 100 is complete control): 60
[9]; Oilseed Rape, 31 g ai/ha
  Plant response rating (scale of 0 to 100 where 0 is no effect and 100 is complete control): 40
[9]; Oilseed Rape, 62 g ai/ha
  Plant response rating (scale of 0 to 100 where 0 is no effect and 100 is complete control): 55
[9]; Oilseed Rape, 125 g ai/ha
  Plant response rating (scale of 0 to 100 where 0 is no effect and 100 is complete control): 80
[10]; 125 g ai/ha
  Plant response rating, Foxtail, Giant: 40
[10]; 500 g ai/ha
  Plant response rating, Foxtail, Giant: 90
[11]
  Plant response rating, Sedge, Umbrella, Flood: 85
[12]; 31 g ai/ha
  Plant response rating (scale of 0 to 100 where 0 is no effect and 100 is complete control): 25
[12]; 62 g ai/ha
  Plant response rating (scale of 0 to 100 where 0 is no effect and 100 is complete control): 30
[12]; 125 g ai/ha
  Plant response rating (scale of 0 to 100 where 0 is no effect and 100 is complete control): 25
[12]; 250 g ai/ha
  Plant response rating (scale of 0 to 100 where 0 is no effect and 100 is complete control): 25
[13]; 31 g ai/ha
  Plant response rating (scale of 0 to 100 where 0 is no effect and 100 is complete control): 5
[13]; 62 g ai/ha
  Plant response rating (scale of 0 to 100 where 0 is no effect and 100 is complete control): 10
[13]; 125 g ai/ha
  Plant response rating (scale of 0 to 100 where 0 is no effect and 100 is complete control): 10
[13]; 250 g ai/ha
  Plant response rating (scale of 0 to 100 where 0 is no effect and 100 is complete control): 15
[14]; 125 g ai/ha
  Plant response rating, Pigweed: 100
[14]; 500 g ai/ha
  Plant response rating, Pigweed: 100
[15]; 31 g ai/ha
  Plant response rating (scale of 0 to 100 where 0 is no effect and 100 is complete control): 5
[15]; 62 g ai/ha
  Plant response rating (scale of 0 to 100 where 0 is no effect and 100 is complete control): 5
[15]; 125 g ai/ha
  Plant response rating (scale of 0 to 100 where 0 is no effect and 100 is complete control): 10
[15]; 250 g ai/ha
  Plant response rating (scale of 0 to 100 where 0 is no effect and 100 is complete control): 15
[16]; 125 g ai/ha
  Plant response rating, Barnyardgrass: 20
[16]; 500 g ai/ha
  Plant response rating, Barnyardgrass: 50
[17]; 31 g ai/ha
  Plant response rating (scale of 0 to 100 where 0 is no effect and 100 is complete control): 5
[17]; 62 g ai/ha
  Plant response rating (scale of 0 to 100 where 0 is no effect and 100 is complete control): 10
[17]; 125 g ai/ha
  Plant response rating (scale of 0 to 100 where 0 is no effect and 100 is complete control): 10
[17]; 250 g ai/ha
  Plant response rating (scale of 0 to 100 where 0 is no effect and 100 is complete control): 15
[18]; 31 g ai/ha
  Plant response rating (scale of 0 to 100 where 0 is no effect and 100 is complete control): 10
[18]; 62 g ai/ha
  Plant response rating (scale of 0 to 100 where 0 is no effect and 100 is complete control): 20
[18]; 125 g ai/ha
  Plant response rating (scale of 0 to 100 where 0 is no effect and 100 is complete control): 20
[18]; 250 g ai/ha
  Plant response rating (scale of 0 to 100 where 0 is no effect and 100 is complete control): 25
[19]; 31 g ai/ha
  Plant response rating (scale of 0 to 100 where 0 is no effect and 100 is complete control): 5
[19]; 62 g ai/ha
  Plant response rating (scale of 0 to 100 where 0 is no effect and 100 is complete control): 5
[19]; 125 g ai/ha
  Plant response rating (scale of 0 to 100 where 0 is no effect and 100 is complete control): 10
[19]; 250 g ai/ha
  Plant response rating (scale of 0 to 100 where 0 is no effect and 100 is complete control): 10
[20]; 31 g ai/ha
  Plant response rating (scale of 0 to 100 where 0 is no effect and 100 is complete control): 80
[20]; 62 g ai/ha
  Plant response rating (scale of 0 to 100 where 0 is no effect and 100 is complete control): 95
[20]; 125 g ai/ha
  Plant response rating (scale of 0 to 100 where 0 is no effect and 100 is complete control): 95
[20]; 250 g ai/ha
  Plant response rating (scale of 0 to 100 where 0 is no effect and 100 is complete control): 95
